Measured values published in the NIST ThermoML archive (doi:10.1007/s10765-007-0223-x).

Assay: xn = mol fraction of the nth substance listed
Settings: 101 kPa, Liquid; for speed of sound: Single path-length method

COC(C)(C)C [2-methoxy-2-methylpropane] + CC(C)(C)O
Settings	mass density [kg/m3]	speed of sound [m/s]
301.65 K, x1 = 0.049	775.452	1105.4
301.65 K, x1 = 0.1	772.914	1100.7
301.65 K, x1 = 0.215	767.025	1089.3
301.65 K, x1 = 0.314	761.986	1079.7
301.65 K, x1 = 0.4	757.94	1072
301.65 K, x1 = 0.498	753.459	1063.6
301.65 K, x1 = 0.597	749.177	1055.5
301.65 K, x1 = 0.707	744.495	1047.6
301.65 K, x1 = 0.799	740.646	1040.8
301.65 K, x1 = 0.9	736.522	1033.1
301.65 K, x1 = 0.951	734.553	1028.8
301.65 K, x1 = 1	732.643	1024.3
303.15 K, x1 = 0.049	772.916	1094.7
303.15 K, x1 = 0.1	770.395	1090.2
303.15 K, x1 = 0.215	764.529	1079.1
303.15 K, x1 = 0.314	759.479	1069.7
303.15 K, x1 = 0.4	755.424	1061.9
303.15 K, x1 = 0.498	750.928	1053.1
303.15 K, x1 = 0.597	746.615	1045
303.15 K, x1 = 0.707	741.905	1036.7
303.15 K, x1 = 0.799	738.033	1029.9
303.15 K, x1 = 0.9	733.889	1021.9
303.15 K, x1 = 0.951	731.913	1017.6
303.15 K, x1 = 1	729.99	1012.8
305.65 K, x1 = 0.049	770.344	1084
305.65 K, x1 = 0.1	767.841	1079.7
305.65 K, x1 = 0.215	762.002	1068.7
305.65 K, x1 = 0.314	756.946	1059.4
305.65 K, x1 = 0.4	752.889	1051.7
305.65 K, x1 = 0.498	748.373	1042.6
305.65 K, x1 = 0.597	744.023	1034.3
305.65 K, x1 = 0.707	739.304	1025.9
305.65 K, x1 = 0.799	735.393	1018.7
305.65 K, x1 = 0.9	731.231	1010.6
305.65 K, x1 = 0.951	729.253	1006.3
305.65 K, x1 = 1	727.325	1001.4
308.15 K, x1 = 0.049	767.747	1073.2
308.15 K, x1 = 0.1	765.265	1069.1
308.15 K, x1 = 0.215	759.448	1058.2
308.15 K, x1 = 0.314	754.398	1049.1
308.15 K, x1 = 0.4	750.325	1041.2
308.15 K, x1 = 0.498	745.794	1032
308.15 K, x1 = 0.597	741.414	1023.5
308.15 K, x1 = 0.707	736.686	1015.2
308.15 K, x1 = 0.799	732.737	1007.6
308.15 K, x1 = 0.9	728.559	999.39
308.15 K, x1 = 0.951	726.577	994.94
308.15 K, x1 = 1	724.645	989.9
310.65 K, x1 = 0.049	765.13	1062.6
310.65 K, x1 = 0.1	762.685	1058.9
310.65 K, x1 = 0.215	756.88	1047.9
310.65 K, x1 = 0.314	751.817	1038.6
310.65 K, x1 = 0.4	747.731	1030.6
310.65 K, x1 = 0.498	743.186	1021.4
310.65 K, x1 = 0.597	738.784	1012.8
310.65 K, x1 = 0.707	734.036	1004.3
310.65 K, x1 = 0.799	730.062	996.52
310.65 K, x1 = 0.9	725.873	988.12
310.65 K, x1 = 0.951	723.884	983.57
310.65 K, x1 = 1	721.953	978.47
313.15 K, x1 = 0.049	762.492	1052
313.15 K, x1 = 0.1	760.064	1048.4
313.15 K, x1 = 0.215	754.27	1037.4
313.15 K, x1 = 0.314	749.212	1028.2
313.15 K, x1 = 0.4	745.126	1020.2
313.15 K, x1 = 0.498	740.567	1010.9
313.15 K, x1 = 0.597	736.13	1002
313.15 K, x1 = 0.707	731.36	993.34
313.15 K, x1 = 0.799	727.372	985.44
313.15 K, x1 = 0.9	723.168	976.81
313.15 K, x1 = 0.951	721.205	972.48
313.15 K, x1 = 1	719.245	967.03
315.65 K, x1 = 0.049	759.831	1041.5
315.65 K, x1 = 0.1	757.407	1037.8
315.65 K, x1 = 0.215	751.633	1026.8
315.65 K, x1 = 0.314	746.577	1017.7
315.65 K, x1 = 0.4	742.483	1009.7
315.65 K, x1 = 0.498	737.91	1000.2
315.65 K, x1 = 0.597	733.459	991.47
315.65 K, x1 = 0.707	728.662	982.37
315.65 K, x1 = 0.799	724.66	974.33
315.65 K, x1 = 0.9	720.449	965.56
315.65 K, x1 = 0.951	718.495	961.27
315.65 K, x1 = 1	716.525	955.73
318.15 K, x1 = 0.049	757.138	1031
318.15 K, x1 = 0.1	754.729	1027.3
318.15 K, x1 = 0.215	748.972	1016.3
318.15 K, x1 = 0.314	743.917	1007.1
318.15 K, x1 = 0.4	739.814	999.06
318.15 K, x1 = 0.498	735.227	989.54
318.15 K, x1 = 0.597	730.762	980.67
318.15 K, x1 = 0.707	725.943	971.38
318.15 K, x1 = 0.799	721.933	963.24
318.15 K, x1 = 0.9	717.738	954.55
318.15 K, x1 = 0.951	715.752	949.91
318.15 K, x1 = 1	713.786	944.34
320.65 K, x1 = 0.049	754.421	1020.5
320.65 K, x1 = 0.1	752.024	1016.8
320.65 K, x1 = 0.215	746.283	1005.9
320.65 K, x1 = 0.314	741.23	996.62
320.65 K, x1 = 0.4	737.119	988.47
320.65 K, x1 = 0.498	732.517	978.82
320.65 K, x1 = 0.597	728.042	969.8
320.65 K, x1 = 0.707	723.201	960.4
320.65 K, x1 = 0.799	719.199	952.31
320.65 K, x1 = 0.9	714.978	943.3
320.65 K, x1 = 0.951	712.991	938.58
320.65 K, x1 = 1	711.028	933.01
323.15 K, x1 = 0.049	751.68	1010
323.15 K, x1 = 0.1	749.295	1006.3
323.15 K, x1 = 0.215	743.567	995.37
323.15 K, x1 = 0.314	738.52	986.19
323.15 K, x1 = 0.4	734.4	977.86
323.15 K, x1 = 0.498	729.786	968.08
323.15 K, x1 = 0.597	725.316	958.97
323.15 K, x1 = 0.707	720.436	949.42
323.15 K, x1 = 0.799	716.426	941.22
323.15 K, x1 = 0.9	712.195	931.99
323.15 K, x1 = 0.951	710.215	927.25
323.15 K, x1 = 1	708.28	921.93
